Data as given in patent US20230257385A1, “SALT AND SOLID FORMS OF TABERNANTHALOG” (priority 2021, published 2023).
“Also recorded” adds a separate entry of the source. Counter-ions that a name gives are not always drawn.

What was measured:
[1] = Solubility determinations in SIF buffers FaSSIF, FeSSIF, FaSSGF (Example 8, Experiment 5); conditions: for solubility at 24 h: 37 °C, thermodynamic from solid; for fate of the suspended phase in FaSSGF (XRPD, 1H NMR): up to 24 h
In short: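 Suspensions in FaSSIF, FeSSIF or FaSSGF held at 37° C for 24 h, sampled at set time points and centrifuged. Pellets checked by XRPD, wet and dried, for form change.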

[2] = Qualitative solubility screen of Tabernanthalog sorbate salt (Example 10, Experiment 2); type: physicochemical
Description: The qualitative solubility screen was carried out to determine the range of solvents incorporated into future suspension equilibration panels. Products that crystallised were centrifuged and analysed as wet pellet by XRPD, dried under reduced pressure and re-analysed by XRPD, with selected samples further analysed by TGA and ^1H NMR spectroscopy.
If insoluble at 5 vol, the solvent quantity was increased to 10 vol, 15 vol and 20 vol of the respective solvent. The suspensions that occurred upon cooling down were centrifuged and the solvent wet pellets were analysed by XRPD.
The insoluble suspensions were additionally worked up for XRPD analysis. The resultant powder patterns were subsequently cross-referenced against the input supplied material.

[3] = Acetone/Water (5% v/v, 0.5 aw), 5 vol

COc1ccc2c3c([nH]c2c1)CCN(C)CC3 [tabernanthalog sorbate salt]
Solubility in SIF buffers: FeSSIF ([1]; 37° C. up to 1 h): Insoluble
Solubility in SIF buffers: FaSSGF ([1]; 37° C. up to 24 h): Insoluble
solubility at 24 h ([1]; pH 5, fessif): > 30 mg/mL
solubility at 24 h ([1]; pH 6.5, fassif): > 30 mg/mL
solubility in the SIF buffers (in words) ([1]; FaSSIF, FeSSIF, FaSSGF): highly soluble in the SIF buffers examined; also recorded: highly soluble in the SIF buffers used, apart from FaSSGF
behaviour at 30 mg/ml in SIF buffers ([1]; FaSSIF, FeSSIF, FaSSGF, 37° C., 24 h): only remained suspended in FaSSGF
solubility in the SIF buffers (in words) ([1]; FaSSIF, FeSSIF, FaSSGF, listed as Tabernanthalog sorbate salt (Form A)): readily soluble in FaSSIF and FeSSIF during 24 h
Tabernanthalog RRT = 1.00 (trended HPLC data, chemical purity) ([1]; tabernanthalog sorbate salt, input before FaSSGF): 99.41
fate of the suspended phase in FaSSGF (XRPD, 1H NMR) ([1]; 37° C.): supported disproportionation
fate of the suspended phase in FaSSGF (XRPD, 1H NMR) ([1]; 37° C., listed as Tabernanthalog sorbate salt (Form A)): only exhibited disproportionation after 24 h in FaSSGF
Solid on cooling ([2]; 2-Propanol, 5 vol): ✓
Solution at reflux ([2]; 2-Propanol, 5 vol): ✓
Solid on cooling ([2]; 2-Propanol, 10 vol): ✓
Solution at reflux ([2]; 2-Propanol, 10 vol): ✓
Solid on cooling ([2]; 2-Propanol, 15 vol): ✓
Solution at reflux ([2]; 2-Propanol, 15 vol): ✓
Solid on cooling ([2]; 2-Propanol, 20 vol): ✓
Solution at reflux ([2]; 2-Propanol, 20 vol): ✓
Solid on cooling ([2]; Acetone, 10 vol): ✓
Solution at reflux ([2]; Acetone, 10 vol): ✓
Solid on cooling ([2]; Acetone, 15 vol): ✓
Solution at reflux ([2]; Acetone, 15 vol): ✓
Solid on cooling ([2]; Acetone, 20 vol): ✓
Solution at reflux ([2]; Acetone, 20 vol): ✓
Solid on cooling [2, 3]: ✓
Solution at 40° C. [2, 3]: ✓
Solid on cooling ([2]; Chlorobenzene, 5 vol): ✓
Solution at reflux ([2]; Chlorobenzene, 5 vol): ✓
Solid on cooling ([2]; Chlorobenzene, 10 vol): ✓
Solution at reflux ([2]; Chlorobenzene, 10 vol): ✓
Solid on cooling ([2]; Chlorobenzene, 15 vol): ✓
Solution at reflux ([2]; Chlorobenzene, 15 vol): ✓
Solid on cooling ([2]; Chlorobenzene, 20 vol): ✓
Solution at 20° C. ([2]; Chlorobenzene, 20 vol): ×
Solution at reflux ([2]; Chlorobenzene, 20 vol): ✓
Solid on cooling ([2]; DCM, 5 vol): ✓
Solution at reflux ([2]; DCM, 5 vol): ✓
Solid on cooling ([2]; DCM, 10 vol): ✓
Solution at 40° C. ([2]; DCM, 10 vol): ✓
Solution at 40° C. ([2]; DCM, 15 vol): ✓
Solid on cooling ([2]; EtOAc, 5 vol): ✓
Solution at reflux ([2]; EtOAc, 5 vol): ✓
Solid on cooling ([2]; EtOAc, 10 vol): ✓
Solution at reflux ([2]; EtOAc, 10 vol): ✓
Solid on cooling ([2]; EtOAc, 15 vol): ✓
Solution at reflux ([2]; EtOAc, 15 vol): ✓
Solid on cooling ([2]; EtOAc, 20 vol): ✓
Solution at reflux ([2]; EtOAc, 20 vol): ✓
Solid on cooling ([2]; EtOH, 5 vol): ✓
Solution at reflux ([2]; EtOH, 5 vol): ✓
Solid on cooling ([2]; EtOH, 10 vol): ✓
Solution at 40° C. ([2]; EtOH, 10 vol): ✓
Solution at 40° C. ([2]; EtOH, 15 vol): ✓
Solution at 20° C. ([2]; Ethanol/Water (15% v/v, 0.5 aw), 5 vol): ✓
Solid on cooling ([2]; Ethyl formate, 5 vol): ✓
Solution at reflux ([2]; Ethyl formate, 5 vol): ✓
Solid on cooling ([2]; Ethyl formate, 10 vol): ✓
Solution at reflux ([2]; Ethyl formate, 10 vol): ✓
Solid on cooling ([2]; Ethyl formate, 15 vol): ✓
Solution at reflux ([2]; Ethyl formate, 15 vol): ✓
Solid on cooling ([2]; Ethyl formate, 20 vol): ✓
Solution at reflux ([2]; Ethyl formate, 20 vol): ✓
Solution at reflux ([2]; Heptane, 10 vol): Oiled
Solution at 40° C. ([2]; Isopropanol/Water (12%, v/v, 0.5 aw), 5 vol): ✓
Solid on cooling ([2]; Isopropyl acetate, 5 vol): ✓
Solution at reflux ([2]; Isopropyl acetate, 5 vol): ✓
Solid on cooling ([2]; Isopropyl acetate, 10 vol): ✓
Solution at reflux ([2]; Isopropyl acetate, 10 vol): ✓
Solid on cooling ([2]; Isopropyl acetate, 15 vol): ✓
Solution at reflux ([2]; Isopropyl acetate, 15 vol): ✓
Solid on cooling ([2]; Isopropyl acetate, 20 vol): ✓
Solution at reflux ([2]; Isopropyl acetate, 20 vol): ✓
Solid on cooling ([2]; MEK, 5 vol): ✓
Solution at reflux ([2]; MEK, 5 vol): ✓
Solid on cooling ([2]; MEK, 10 vol): ✓
Solution at reflux ([2]; MEK, 10 vol): ✓
Solid on cooling ([2]; MEK, 15 vol): ✓
Solution at reflux ([2]; MEK, 15 vol): ✓
Solid on cooling ([2]; MEK, 20 vol): ✓
Solution at 40° C. ([2]; MEK, 20 vol): ✓
Solid on cooling ([2]; MeCN, 5 vol): ✓
Solution at reflux ([2]; MeCN, 5 vol): ✓
Solid on cooling ([2]; MeCN, 10 vol): ✓
Solution at reflux ([2]; MeCN, 10 vol): ✓
Solid on cooling ([2]; MeCN, 15 vol): ✓
Solution at reflux ([2]; MeCN, 15 vol): ✓
Solid on cooling ([2]; MeCN, 20 vol): ✓
Solution at reflux ([2]; MeCN, 20 vol): ✓
Solution at 20° C. ([2]; MeOH, 5 vol): ✓
Solid on cooling ([2]; MeTHF, 5 vol): ✓
Solution at reflux ([2]; MeTHF, 5 vol): ✓
Solid on cooling ([2]; MeTHF, 10 vol): ✓
Solution at reflux ([2]; MeTHF, 10 vol): ✓
Solid on cooling ([2]; MeTHF, 15 vol): ✓
Solution at reflux ([2]; MeTHF, 15 vol): ✓
Solid on cooling ([2]; MeTHF, 20 vol): ✓
Solution at reflux ([2]; MeTHF, 20 vol): ✓
Solid on cooling ([2]; Methyl acetate, 10 vol): ✓
Solution at reflux ([2]; Methyl acetate, 10 vol): ✓
Solid on cooling ([2]; Methyl acetate, 15 vol): ✓
Solution at reflux ([2]; Methyl acetate, 15 vol): ✓
Solid on cooling ([2]; Methyl acetate, 20 vol): ✓
Solution at reflux ([2]; Methyl acetate, 20 vol): ✓
Solid on cooling ([2]; Nitromethane, 5 vol): ✓
Solution at reflux ([2]; Nitromethane, 5 vol): ✓
Solid on cooling ([2]; Nitromethane, 10 vol): ✓
Solution at reflux ([2]; Nitromethane, 10 vol): ✓
Solid on cooling ([2]; Nitromethane, 15 vol): ✓
Solution at reflux ([2]; Nitromethane, 15 vol): ✓
Solid on cooling ([2]; Nitromethane, 20 vol): ✓
Solution at reflux ([2]; Nitromethane, 20 vol): ✓
Solid on cooling ([2]; THF, 5 vol): ✓
Solution at reflux ([2]; THF, 5 vol): ✓
Solution at reflux ([2]; THF, 10 vol): ✓
Solid on cooling ([2]; Toluene, 5 vol): ✓
Solution at reflux ([2]; Toluene, 5 vol): ✓
Solid on cooling ([2]; Toluene, 10 vol): ✓
Solution at reflux ([2]; Toluene, 10 vol): ✓
Solid on cooling ([2]; Toluene, 15 vol): ✓
Solution at reflux ([2]; Toluene, 15 vol): ✓
Solid on cooling ([2]; Toluene, 20 vol): ✓
Solution at reflux ([2]; Toluene, 20 vol): ✓
Solid on cooling ([2]; Water, 5 vol): ✓
Solution at reflux ([2]; Water, 5 vol): ✓
Solution at reflux ([2]; Water, 10 vol): ✓
